# In patent US20240174718A1, “RYANODINE RECEPTOR INHIBITOR COMPOUNDS AND METHODS RELATING THERETO” (Vanderbilt University, priority 2022, published 2024):
# Experiments:
# RyR2 = target: T1, RyR2 (Mus musculus, UniProt E9Q401); test: Calcium spark frequency in permeabilized Casq2 knockout cardiomyocytes (screen for RyR2 activity); assay type: cell-based
# T1 construct: spontaneous openings of intracellular RyR2 Ca^2+ release channels; endogenous in cells; host or cells: ventricular cardiomyocytes isolated from Casq2-/- mice (saponin-permeabilized in A1, intact in A7)
# Experimental: FIGS. 3(A)-3(E) show a biological screen for cardiac ryanodine receptor (RyR2) activity. Note that ‘ent-24’=9, and ‘ent-18’ refers to structure 8 in FIG. 1, which is also the enantiomer of a natural product. (3A) Calcium spark frequency in permeabilized murine cardiomyocytes was recorded as an index of RyR2 activity. Compounds were screened at 25 uM concentration after 10-minute incubation. *=p<0.001 by one-way ANOVA with Tukey's post-hoc test. (3B) Incubation time was extended to 60 minutes for the 12- and 30-membered rings. (3C) The seco-acid precursors to 12- and 18-membered rings were tested at 25 uM. (3D) Concentration response curve for the 18-membered ring and (3E) 24-membered ring. Cells were incubated for 30 minutes
# Activity of Ring-Size Analogues. […] Ventricular cardiomyocytes were isolated, permeabilized with saponin, and incubated with vehicle (DMSO) or 25 μM of selected compound. RyR2 activity was measured in the form of calcium sparks, which are elementary Ca^2+ release events generated by spontaneous openings of intracellular RyR2 Ca^2+ release channels. Importantly, saponin selectively permeabilizes the sarcolemmal membrane, leaving the SR membrane intact and ensuring equivalent access of the compounds to the SR membrane where RyR2 resides.
# The compounds were first screened by incubating cardiomyocytes for 10 minutes at 25 μM concentration and compared to vehicle (DMSO) conditions.
# Casq2-/- mice = test: Catecholamine-induced arrhythmia challenge (ECG) in CPVT mice; assay type: in vivo, mouse
# Experimental: Triple crossover study design for in vivo arrhythmia challenge. N=22 Casq2^−/− mice were randomly assigned to vehicle (DMSO), 3 mg/kg, or 30 mg/kg ent-B1 and crossed over twice with one-week washouts between treatment. Mice underwent catecholamine-induced arrhythmia challenge with isoproterenol 15 min after intraperitoneal drug administration. […] Ectopic beats are denoted by p (PVC), c (couplet), and vt (ventricular tachycardia). Normal sinus beats are not marked. […] Individual data are shown with median and interquartile range. Bonferroni-adjusted P values by pairwise Wilcoxon matched-pairs signed rank test. *P=0.020 vs Veh; #P=0.039 vs Veh. […] Bonferroni-adjusted P values by pairwise Wilcoxon matched- pairs signed rank test. #P=0.0058 vs Vehicle.
# ECG recording—Nine male and thirteen female Casq2^−/− mice 17-20 weeks old were randomly assigned to a three-by-three crossover design such that every treatment sequence was sampled. Mice were pretreated with intraperitoneal injection of vehicle (DMSO), 3 mg/kg ent-B1, or 30 mg/kg of ent-B1 fifteen minutes prior to baseline ECG recording. Mice were then injected with 3 mg/kg isoproterenol intraperitoneally. Recordings were continued for 5 minutes or for 1 minute after cessation of ventricular ectopy. A washout period of one week was used between treatments. The Vanderbilt Institutional Animal Care and Use Committee (IACUC) approved the use of mice in these studies (protocol #M1900057-01). Animals had free access to food and water.
# ECG analysis—LabChart (AD Instruments, Inc) was used to analyze ECG recordings by a reviewer blinded to treatment dose. ECG records were examined to quantify premature ventricular contractions (PVCs), duration of ventricular tachycardia, heart rate, and baseline ECG parameters (PR, QRS and QT interval). Arrhythmias were scored on a five point ordinal scale based on the number of PVCs with the following criteria: 1) zero point for no PVCs; 2) one point for isolated PVCs; 3) two points for bigeminy (alternating sinus beats and PVCs); 4) three points for couplets (two consecutive PVCs); and 5) four points for three or more consecutive PVCs (ventricular tachycardia).
# All tests were two-sided and a p-value cutoff of <0.05 was used to denote significance. Concentration-response curves for RyR2 single-channel, [^3H]ryanodine ligand binding and intact myocyte assays were generated using non-linear regression with the equation: Y=Bottom+(Top−Bottom)/(1+(IC50/X)^HillSlope) using least square regression, no weighting, and no constrains on the parameters. The distributions of relative RyR2 open probability at each [ent-B1] were normalized by taking the log of each sample. For the 3×3 crossover in vivo ECG study, a pre-test was conducted using a mixed model with fixed effects of sequence and period; mice were treated as random effects.
# Casq2^−/− mice are a validated model for preclinical testing of antiarrhythmic drugs for CPVT. […] The same doses of ent-B1 were tested in a triple-crossover design with each mouse receiving vehicle (DMSO), 3 mg/kg, and 30 mg/kg with a one-week washout period between experiments. […] ECGs were analyzed in blinded fashion and ventricular arrhythmias quantified. […] We also scored the mice based on the ventricular arrhythmia severity, i.e., premature ventricular complexes (PVCs)<bigeminy<couplets<ventricular tachycardia. […]
# T1 sequence (E9Q401 whole entry): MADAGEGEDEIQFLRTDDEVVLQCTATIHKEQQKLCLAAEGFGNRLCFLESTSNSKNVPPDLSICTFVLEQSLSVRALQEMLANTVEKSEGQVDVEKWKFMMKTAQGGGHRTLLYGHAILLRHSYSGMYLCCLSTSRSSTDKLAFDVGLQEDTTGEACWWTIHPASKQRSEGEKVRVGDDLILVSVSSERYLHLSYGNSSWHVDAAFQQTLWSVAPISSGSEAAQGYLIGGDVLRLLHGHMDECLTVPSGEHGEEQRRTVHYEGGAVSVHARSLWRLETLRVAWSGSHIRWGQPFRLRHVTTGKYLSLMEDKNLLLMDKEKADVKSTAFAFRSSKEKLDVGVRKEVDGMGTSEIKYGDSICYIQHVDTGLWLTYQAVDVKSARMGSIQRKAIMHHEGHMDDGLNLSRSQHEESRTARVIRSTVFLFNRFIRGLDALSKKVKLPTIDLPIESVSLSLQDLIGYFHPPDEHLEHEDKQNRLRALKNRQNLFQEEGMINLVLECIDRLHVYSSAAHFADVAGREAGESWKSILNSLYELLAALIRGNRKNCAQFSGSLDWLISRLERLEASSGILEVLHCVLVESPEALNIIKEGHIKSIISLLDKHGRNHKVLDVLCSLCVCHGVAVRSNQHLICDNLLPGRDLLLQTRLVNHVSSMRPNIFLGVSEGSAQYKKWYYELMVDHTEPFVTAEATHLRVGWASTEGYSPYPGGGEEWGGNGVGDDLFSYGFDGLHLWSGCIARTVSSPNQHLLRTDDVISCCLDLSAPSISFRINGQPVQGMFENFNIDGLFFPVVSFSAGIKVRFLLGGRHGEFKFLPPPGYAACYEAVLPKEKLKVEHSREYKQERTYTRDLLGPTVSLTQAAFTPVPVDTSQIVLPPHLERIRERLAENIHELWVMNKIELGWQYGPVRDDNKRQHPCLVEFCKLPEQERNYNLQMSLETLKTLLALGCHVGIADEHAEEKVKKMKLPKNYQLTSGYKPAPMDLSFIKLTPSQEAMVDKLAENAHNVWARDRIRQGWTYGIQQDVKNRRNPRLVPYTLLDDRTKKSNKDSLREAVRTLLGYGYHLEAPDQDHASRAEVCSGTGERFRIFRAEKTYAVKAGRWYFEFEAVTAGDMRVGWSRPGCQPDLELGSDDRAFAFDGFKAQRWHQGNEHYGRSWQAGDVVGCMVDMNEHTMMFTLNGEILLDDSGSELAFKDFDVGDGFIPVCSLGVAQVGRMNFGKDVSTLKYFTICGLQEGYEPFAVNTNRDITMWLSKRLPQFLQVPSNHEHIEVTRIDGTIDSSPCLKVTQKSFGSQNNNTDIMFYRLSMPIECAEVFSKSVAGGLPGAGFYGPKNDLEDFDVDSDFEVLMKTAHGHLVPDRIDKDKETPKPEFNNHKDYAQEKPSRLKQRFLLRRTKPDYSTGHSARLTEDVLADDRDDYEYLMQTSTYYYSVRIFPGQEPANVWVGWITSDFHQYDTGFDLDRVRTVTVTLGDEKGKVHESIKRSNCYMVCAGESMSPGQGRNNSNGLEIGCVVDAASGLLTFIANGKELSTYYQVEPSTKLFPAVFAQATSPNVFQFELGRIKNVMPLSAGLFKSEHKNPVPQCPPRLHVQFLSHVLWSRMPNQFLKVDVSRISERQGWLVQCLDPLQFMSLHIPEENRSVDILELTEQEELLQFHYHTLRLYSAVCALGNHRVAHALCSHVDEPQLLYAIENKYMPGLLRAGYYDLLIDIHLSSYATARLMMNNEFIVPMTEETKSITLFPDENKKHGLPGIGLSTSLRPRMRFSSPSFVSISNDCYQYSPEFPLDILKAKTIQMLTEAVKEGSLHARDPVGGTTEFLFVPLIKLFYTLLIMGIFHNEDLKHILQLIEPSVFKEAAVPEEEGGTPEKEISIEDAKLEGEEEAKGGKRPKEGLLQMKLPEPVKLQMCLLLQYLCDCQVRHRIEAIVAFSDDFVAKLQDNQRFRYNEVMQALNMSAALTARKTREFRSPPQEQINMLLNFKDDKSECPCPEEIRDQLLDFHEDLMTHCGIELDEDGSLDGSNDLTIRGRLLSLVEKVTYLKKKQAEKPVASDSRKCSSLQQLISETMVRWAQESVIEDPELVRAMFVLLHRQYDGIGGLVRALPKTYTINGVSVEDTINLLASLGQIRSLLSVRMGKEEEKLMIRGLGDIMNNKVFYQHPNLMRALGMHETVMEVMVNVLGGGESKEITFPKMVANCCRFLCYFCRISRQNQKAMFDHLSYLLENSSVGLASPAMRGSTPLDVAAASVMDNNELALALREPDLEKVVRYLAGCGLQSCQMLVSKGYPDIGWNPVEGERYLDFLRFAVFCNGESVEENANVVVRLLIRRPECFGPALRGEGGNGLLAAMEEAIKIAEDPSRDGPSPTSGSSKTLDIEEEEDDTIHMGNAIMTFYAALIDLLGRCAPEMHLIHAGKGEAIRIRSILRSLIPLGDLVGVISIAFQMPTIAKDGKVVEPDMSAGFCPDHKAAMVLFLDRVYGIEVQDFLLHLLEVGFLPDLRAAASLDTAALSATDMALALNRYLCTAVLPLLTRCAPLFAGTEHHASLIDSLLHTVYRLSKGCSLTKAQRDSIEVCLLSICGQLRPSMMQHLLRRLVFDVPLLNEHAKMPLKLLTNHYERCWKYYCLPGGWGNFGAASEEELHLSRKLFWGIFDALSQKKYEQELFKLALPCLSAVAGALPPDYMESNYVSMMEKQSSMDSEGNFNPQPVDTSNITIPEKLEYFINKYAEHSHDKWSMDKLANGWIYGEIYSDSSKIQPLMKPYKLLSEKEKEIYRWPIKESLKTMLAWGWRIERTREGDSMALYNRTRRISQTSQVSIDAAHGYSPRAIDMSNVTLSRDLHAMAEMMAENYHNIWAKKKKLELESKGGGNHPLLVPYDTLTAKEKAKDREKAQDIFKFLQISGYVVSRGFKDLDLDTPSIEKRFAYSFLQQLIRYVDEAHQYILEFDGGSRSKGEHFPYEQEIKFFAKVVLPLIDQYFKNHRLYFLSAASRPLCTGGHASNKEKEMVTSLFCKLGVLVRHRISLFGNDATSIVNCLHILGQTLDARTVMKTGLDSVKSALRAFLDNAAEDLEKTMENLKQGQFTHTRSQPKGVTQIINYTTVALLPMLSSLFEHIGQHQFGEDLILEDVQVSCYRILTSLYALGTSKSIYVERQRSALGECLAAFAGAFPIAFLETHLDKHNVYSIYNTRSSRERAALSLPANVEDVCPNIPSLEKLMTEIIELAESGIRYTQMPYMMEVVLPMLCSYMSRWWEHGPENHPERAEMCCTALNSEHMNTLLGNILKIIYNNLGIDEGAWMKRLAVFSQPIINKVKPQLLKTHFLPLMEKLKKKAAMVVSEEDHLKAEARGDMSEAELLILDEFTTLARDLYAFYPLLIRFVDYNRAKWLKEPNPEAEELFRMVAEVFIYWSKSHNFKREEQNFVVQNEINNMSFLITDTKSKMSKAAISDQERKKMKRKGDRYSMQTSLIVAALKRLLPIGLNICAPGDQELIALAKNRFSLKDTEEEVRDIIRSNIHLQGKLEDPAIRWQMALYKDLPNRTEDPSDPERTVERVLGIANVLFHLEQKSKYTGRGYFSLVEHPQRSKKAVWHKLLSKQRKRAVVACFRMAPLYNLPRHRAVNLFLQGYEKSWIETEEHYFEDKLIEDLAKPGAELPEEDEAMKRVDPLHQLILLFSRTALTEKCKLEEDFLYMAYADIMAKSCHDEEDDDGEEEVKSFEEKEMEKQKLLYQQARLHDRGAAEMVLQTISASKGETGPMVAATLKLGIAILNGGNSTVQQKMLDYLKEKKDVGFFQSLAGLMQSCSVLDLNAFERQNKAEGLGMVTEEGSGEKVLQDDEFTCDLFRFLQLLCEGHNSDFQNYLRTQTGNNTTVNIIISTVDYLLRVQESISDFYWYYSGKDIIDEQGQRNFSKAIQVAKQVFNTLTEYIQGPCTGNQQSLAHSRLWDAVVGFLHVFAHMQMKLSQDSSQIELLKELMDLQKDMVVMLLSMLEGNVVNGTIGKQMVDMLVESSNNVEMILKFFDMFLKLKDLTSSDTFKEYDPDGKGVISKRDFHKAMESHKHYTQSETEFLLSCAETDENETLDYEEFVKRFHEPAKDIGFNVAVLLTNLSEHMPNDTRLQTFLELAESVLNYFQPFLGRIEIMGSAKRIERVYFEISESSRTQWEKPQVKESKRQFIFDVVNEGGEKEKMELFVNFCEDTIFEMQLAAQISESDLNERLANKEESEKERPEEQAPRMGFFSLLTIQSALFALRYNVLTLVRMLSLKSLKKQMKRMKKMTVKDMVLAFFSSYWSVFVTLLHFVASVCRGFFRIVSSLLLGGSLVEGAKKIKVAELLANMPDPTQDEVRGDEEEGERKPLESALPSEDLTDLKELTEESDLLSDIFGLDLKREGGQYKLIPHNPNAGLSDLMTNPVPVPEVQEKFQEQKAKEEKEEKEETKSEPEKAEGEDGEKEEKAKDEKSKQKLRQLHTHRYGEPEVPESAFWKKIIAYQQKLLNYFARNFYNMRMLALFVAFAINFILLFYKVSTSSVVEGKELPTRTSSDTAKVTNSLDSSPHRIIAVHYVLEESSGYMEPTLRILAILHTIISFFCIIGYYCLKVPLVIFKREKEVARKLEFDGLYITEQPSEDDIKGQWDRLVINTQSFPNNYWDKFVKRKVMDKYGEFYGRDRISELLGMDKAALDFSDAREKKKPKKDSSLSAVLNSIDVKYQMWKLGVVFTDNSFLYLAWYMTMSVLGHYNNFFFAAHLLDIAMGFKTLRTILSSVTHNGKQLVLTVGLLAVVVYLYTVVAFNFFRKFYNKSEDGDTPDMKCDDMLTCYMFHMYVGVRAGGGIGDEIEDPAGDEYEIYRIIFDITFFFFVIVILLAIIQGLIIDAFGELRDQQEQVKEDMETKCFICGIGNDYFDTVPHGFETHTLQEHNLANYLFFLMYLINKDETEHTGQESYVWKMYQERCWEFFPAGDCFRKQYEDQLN
compound,measurement,setting,value
"CCCCC[C@@H]1OC(=O)[C@@H](C)N(C)C(=O)[C@H](CCCCC)OC(=O)[C@@H](C)N(C)C(=O)[C@H](CCCCC)OC(=O)[C@@H](C)N(C)C1=O (single isomer, unassigned) [ent-B1]",RyR2-mediated Ca2+ spark frequency,"RyR2; 25 μM, 10 minutes incubation, vs vehicle (DMSO)",significantly inhibited
same,activity in the calcium spark assay (summary statement),RyR2; listed as 8,potent inhibitor
same,activity in the calcium spark assay (summary statement),RyR2; listed as 18-membered COD,potent
same,reduction in ventricular ectopy burden,"Casq2-/- mice; 30 mg/kg i.p., Casq2-/- mice, isoproterenol challenge",70%
same,incidence of VT,Casq2-/- mice; 3 and 30 mg/kg i.p. vs vehicle,dose-dependent reduction
same,number of total ectopic beats,Casq2-/- mice; 3 and 30 mg/kg i.p. vs vehicle,dose-dependent reduction
same,suppression of ventricular tachycardia,"Casq2-/- mice; only at the higher dose tested, 30 mg/kg",statistically significant suppression
same,arrhythmia risk scores,"Casq2-/- mice; ordinal scale 0-4, vs vehicle",lower
